Where “and” joins values, the source holds several entries; their conditions need not be identical. Equal values may be shown once. Inconclusive results and toxic doses are left out. No stated cut-off is given here; in the data, active means T/C of 150% or more; inactive means T/C below 125%.
Tested on: L1210 leukemia ip in BDF1 mice, survival T/C
Test: NCI In Vivo Anticancer Drug Screen. Data for tumor model L1210 Leukemia (intraperitoneal) in B6D2F1 (BDF1) mice
Settings: endpoint: mean survival time, higher = longer survival
Method in brief: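 Transplantable tumor model; survival measured in treated vs vehicle control mice. Value = treated/control.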

[1] = dose: 100.0 mg/kg/injection, schedule: Q01DX001 (ip), vehicle: saline
[2] = dose: 100.0 mg/kg/injection, schedule: Q04DX003 (ip), vehicle: saline
[3] = dose: 200.0 mg/kg/injection, schedule: Q01DX001 (ip), vehicle: saline
[4] = dose: 400.0 mg/kg/injection, schedule: Q01DX001 (ip), vehicle: saline
[5] = dose: 50.0 mg/kg/injection, schedule: Q01DX001 (ip), vehicle: saline
[6] = dose: 100.0 mg/kg/injection, schedule: Q04DX002 (ip), vehicle: Klucel (hydroxypropylcellulose) (HPC)
[7] = dose: 200.0 mg/kg/injection, schedule: Q04DX002 (ip), vehicle: Klucel (hydroxypropylcellulose) (HPC)
[8] = dose: 400.0 mg/kg/injection, schedule: Q04DX002 (ip), vehicle: Klucel (hydroxypropylcellulose) (HPC)
[9] = dose: 100.0 mg/kg/injection, schedule: Q04DX003 (ip), vehicle: saline with Tween-80

Measured: T/C

O=C(Cl)c1c(Cl)c(Cl)c(C(=O)Cl)c(Cl)c1Cl
inactive: dose: 25.0 mg/kg/injection, schedule: Q01DX009 (ip), vehicle: saline 90 % of control | dose: 50.0 mg/kg/injection, schedule: Q01DX009 (ip), vehicle: saline 97 % of control | [1] 98 % of control | [2] 100 % of control | [3] 98 % of control | [4] 104 % of control

CCCCOC(=O)Cc1cccc2ccccc12
inactive: dose: 222.0 mg/kg/injection, schedule: Q01DX Z (ip), vehicle: methylcellulose (MC) 102 % of control | dose: 333.0 mg/kg/injection, schedule: Q01DX Z (ip), vehicle: methylcellulose (MC) 110 % of control | dose: 500.0 mg/kg/injection, schedule: Q01DX Z (ip), vehicle: methylcellulose (MC) 104 % of control

COC(=O)c1c2c(nc3ccccc13)-c1ccccc1C(C)(C)C2Br (stereo not given)
inactive: dose: 100.0 mg/kg/injection, schedule: Q04DX003 (ip), vehicle: Klucel (hydroxypropylcellulose) (HPC) 95 % of control | dose: 200.0 mg/kg/injection, schedule: Q04DX003 (ip), vehicle: Klucel (hydroxypropylcellulose) (HPC) 92 % of control | dose: 400.0 mg/kg/injection, schedule: Q04DX003 (ip), vehicle: Klucel (hydroxypropylcellulose) (HPC) 95 % of control

N#[N+]c1ccc2[nH]c3ccccc3c(=O)c2c1
inactive: dose: 5.0 mg/kg/injection, schedule: Q01DX009 (ip), vehicle: saline 105 % of control | dose: 10.0 mg/kg/injection, schedule: Q01DX001 (ip), vehicle: saline 101 % of control | dose: 10.0 mg/kg/injection, schedule: Q01DX009 (ip), vehicle: saline 102 % of control | dose: 10.0 mg/kg/injection, schedule: Q04DX003 (ip), vehicle: saline 94 % of control | dose: 20.0 mg/kg/injection, schedule: Q01DX001 (ip), vehicle: saline 101 % of control | dose: 20.0 mg/kg/injection, schedule: Q01DX009 (ip), vehicle: saline 94 % of control | dose: 20.0 mg/kg/injection, schedule: Q04DX003 (ip), vehicle: saline 97 % of control | dose: 40.0 mg/kg/injection, schedule: Q01DX001 (ip), vehicle: saline 104 % of control | dose: 40.0 mg/kg/injection, schedule: Q04DX003 (ip), vehicle: saline 97 % of control

O=C(CCCC(=O)N/N=C/c1c(Cl)cccc1Cl)N/N=C\c1c(Cl)cccc1Cl
inactive: [5] 100 % of control | [1] 106 % of control | [3] 100 % of control | [4] 103 % of control

CC(NC(=O)OCc1ccccc1)C(=O)ON1C(=O)CCC1=O (stereo not given)
inactive: [1] 97 % of control | dose: 100.0 mg/kg/injection, schedule: Q01DX009 (ip), vehicle: saline 95 % of control | [2] 96 % of control | [3] 102 % of control | dose: 200.0 mg/kg/injection, schedule: Q01DX009 (ip), vehicle: saline 93 % of control | dose: 200.0 mg/kg/injection, schedule: Q04DX003 (ip), vehicle: saline 94 % of control | [4] 97 % of control | dose: 400.0 mg/kg/injection, schedule: Q01DX009 (ip), vehicle: saline 88 % of control | dose: 400.0 mg/kg/injection, schedule: Q04DX003 (ip), vehicle: saline 96 % of control

CNNC(=O)Cc1ccccc1
inactive: dose: 100.0 mg/kg/injection, schedule: Q01DX001 (ip), vehicle: other 92 % of control | dose: 200.0 mg/kg/injection, schedule: Q01DX001 (ip), vehicle: other 108 % of control | dose: 400.0 mg/kg/injection, schedule: Q01DX001 (ip), vehicle: other 108 % of control

CC(C(=O)O)N(C)C(=O)c1cnc2ccccc2n1 (stereo not given)
inactive: dose: 100.0 mg/kg/injection, schedule: Q01DX001 (ip), vehicle: carboxymethylcellulose (CMC) 94 % of control | dose: 100.0 mg/kg/injection, schedule: Q04DX003 (ip), vehicle: carboxymethylcellulose (CMC) 95 % of control | dose: 200.0 mg/kg/injection, schedule: Q01DX001 (ip), vehicle: carboxymethylcellulose (CMC) 96 % of control | dose: 200.0 mg/kg/injection, schedule: Q04DX003 (ip), vehicle: carboxymethylcellulose (CMC) 99 % of control | dose: 400.0 mg/kg/injection, schedule: Q01DX001 (ip), vehicle: carboxymethylcellulose (CMC) 89 % of control | dose: 400.0 mg/kg/injection, schedule: Q04DX003 (ip), vehicle: carboxymethylcellulose (CMC) 97 % of control

Cc1cnc(NCCCC(N)C(=O)O)nc1 (stereo not given)
inactive: dose: 100.0 mg/kg/injection, schedule: Q04DX002 (ip), vehicle: saline 95 % of control | dose: 200.0 mg/kg/injection, schedule: Q04DX002 (ip), vehicle: saline 95 % of control

CCOC(=O)C(C)N1C(=O)c2ccccc2C1=O (stereo not given)
inactive: [6] 100 % of control | [7] 104 % of control | [8] 100 % of control

c1ccc(-c2cnc(-c3ccccc3)[nH]2)cc1
inactive: [9] 97 % of control | dose: 200.0 mg/kg/injection, schedule: Q04DX003 (ip), vehicle: saline with Tween-80 100 % of control | dose: 400.0 mg/kg/injection, schedule: Q04DX003 (ip), vehicle: saline with Tween-80 100 % of control

O=P(NCCCl)(NCCCl)c1ccccc1
inactive: [6] 118 % of control | [7] 100 % of control | [8] 96 % of control

CC(=O)COc1ccc([N+](=O)[O-])cc1
inactive: dose: 100.0 mg/kg/injection, schedule: Q01DX001 (ip), vehicle: saline with Tween-80 100 % of control | dose: 200.0 mg/kg/injection, schedule: Q01DX001 (ip), vehicle: saline with Tween-80 102 % of control | dose: 400.0 mg/kg/injection, schedule: Q01DX001 (ip), vehicle: saline with Tween-80 98 % of control

CCN(CCNC(C)(C)[P+](=O)O)c1ccccc1
inactive: dose: 75.0 mg/kg/injection, schedule: Q04DX003 (ip), vehicle: Klucel (hydroxypropylcellulose) (HPC) 100 % of control | [1] 105 % of control | dose: 150.0 mg/kg/injection, schedule: Q04DX003 (ip), vehicle: Klucel (hydroxypropylcellulose) (HPC) 96 % of control | [3] 105 % of control | dose: 300.0 mg/kg/injection, schedule: Q04DX003 (ip), vehicle: Klucel (hydroxypropylcellulose) (HPC) 110 % of control | [4] 102 % of control

c1ccc(SCN(CSc2ccccc2)c2ccccc2)cc1
inactive: dose: 100.0 mg/kg/injection, schedule: Q01DX009 (ip), vehicle: Klucel (hydroxypropylcellulose) (HPC) 106 % of control | dose: 200.0 mg/kg/injection, schedule: Q01DX009 (ip), vehicle: Klucel (hydroxypropylcellulose) (HPC) 101 % of control

CCCCCCCCC[n+]1ccc(C(N)=O)cc1
inactive: [9] 98 % of control

O=S(=O)(O)Nc1ccc(S(=O)(=O)O)c2ccccc12
inactive: [5] 102 % of control | [1] 93 % of control | [3] 96 % of control | [4] 98 % of control

COc1cc([N+](=O)[O-])ccc1NC(=O)Oc1ccccc1C(N)=O
inactive: dose: 12.5 mg/kg/injection, schedule: Q01DX009 (ip), vehicle: Klucel (hydroxypropylcellulose) (HPC) 102 % of control | dose: 25.0 mg/kg/injection, schedule: Q01DX009 (ip), vehicle: Klucel (hydroxypropylcellulose) (HPC) 100 % of control | dose: 50.0 mg/kg/injection, schedule: Q01DX009 (ip), vehicle: Klucel (hydroxypropylcellulose) (HPC) 98 % of control

CSc1ccc2c(c1)N(CCC1CCCCN1C)c1ccccc1S2 (stereo not given)
inactive: dose: 0.78 mg/kg/injection, schedule: Q01DX009 (ip), vehicle: saline 101 % of control | dose: 1.56 mg/kg/injection, schedule: Q01DX009 (ip), vehicle: saline 103 % of control | dose: 3.12 mg/kg/injection, schedule: Q01DX009 (ip), vehicle: saline 94 % of control and 98 % of control | dose: 6.25 mg/kg/injection, schedule: Q01DX009 (ip), vehicle: saline 94 % of control and 101 % of control | dose: 12.5 mg/kg/injection, schedule: Q01DX009 (ip), vehicle: saline 98 % of control and 116 % of control | dose: 25.0 mg/kg/injection, schedule: Q04DX003 (ip), vehicle: saline 103 % of control | dose: 50.0 mg/kg/injection, schedule: Q04DX003 (ip), vehicle: saline 92 % of control

— PubChem BioAssay AID248 (DTP/NCI, 2004)
